In US20250154154A1 (Relay Binney Street, 2nd Floor, priority 2020, published 2025):

The compounds below were run against SRC (Homo sapiens, UniProt P12931) (assay: SRC Biochemical Assay Protocol (microfluidic mobility shift assay, FLPeptide4 substrate)).
Description: SRC Biochemical Assay Protocol
Src biochemical kinase activity was measured using a surrogate fluorescent peptide substrate [FLPeptide4; 5-FAM-EGIYGVLFKKK-CONH2 (PerkinElmer Cat. No. 760348)] with a microfluidic mobility shift assay. Reactions were performed in 384-well flat bottom polystyrene microplates (Corning Cat. No. 3570) at a final volume of 20 μL in 50 mM HEPES pH 7.4, 1 mM EGTA, 10 mM MgCl2, 0.01% Brij-35, 2 mM DTT, 0.05% BSA, 1% DMSO. Inhibition experiments were performed with compounds of the invention varying from 0.0017-100 μM with 0.26 nM SRC, 1.5 μM FLPeptide4, and 50 μM ATP. Specifically, 15 μl 1.3× mixtures of SRC+FLPeptide4+compounds were preincubated for 30 minutes at room temperature followed by addition of 5 μL 4×ATP. Reactions were carried out for 90 minutes then quenched with 40 μl 500 mM EDTA. Phosphorylated peptide product was measured with a mobility shift assay using a LabChip® EZ Reader system (PerkinElmer Cat. No. 122919). Inhibition ratios were calculated relative to neutral controls and IC50 values were obtained from dose response data fitted to a 4-parameter logistic model.

Chain of SRC (P12931 whole entry, species assumed): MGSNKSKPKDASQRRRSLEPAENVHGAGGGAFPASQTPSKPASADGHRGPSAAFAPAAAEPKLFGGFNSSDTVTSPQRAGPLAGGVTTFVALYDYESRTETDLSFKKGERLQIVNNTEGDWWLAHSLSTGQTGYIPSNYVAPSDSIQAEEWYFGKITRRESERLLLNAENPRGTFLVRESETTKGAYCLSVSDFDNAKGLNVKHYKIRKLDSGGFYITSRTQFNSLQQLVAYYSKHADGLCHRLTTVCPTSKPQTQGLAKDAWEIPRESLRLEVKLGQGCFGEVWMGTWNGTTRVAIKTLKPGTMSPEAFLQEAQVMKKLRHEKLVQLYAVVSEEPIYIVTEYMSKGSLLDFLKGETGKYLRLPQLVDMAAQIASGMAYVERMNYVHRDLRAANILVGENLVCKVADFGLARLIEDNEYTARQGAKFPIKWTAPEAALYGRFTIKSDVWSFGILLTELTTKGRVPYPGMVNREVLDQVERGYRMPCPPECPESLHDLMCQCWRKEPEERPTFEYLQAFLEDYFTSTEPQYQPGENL

Row | Compound | IC50 [µM]
1 | Nc1ncnc2c1c(-c1ccc(Oc3ccccc3)cc1)c(C#CC1CCNCC1)n2C1CCOC1 (stereo not drawn) [II-155, 5-(4-phenoxyphenyl)-6-(piperidin-4-ylethynyl)-7-(tetrahydrofuran-3-yl)-7H-pyrrolo[2,3-d]pyrimidin-4-amine] | ≤ 0.01
2 | CCC(=O)N1CCC(C#Cc2c(-c3ccc(Oc4ccccc4)cc3)c3c(N)ncnc3n2C2CCOC2)CC1 (stereo not drawn) [II-156, 1-(4-((4-amino-5-(4-phenoxyphenyl)-7-(tetrahydrofuran-3-yl)-7H-pyrrolo[2,3-d]pyrimidin-6-yl)ethynyl)piperidin-1-yl)propan-1-one] | 0.01 to 1
3 | CC(C)n1c(C#CC2CCNC2)c(-c2ccc(Oc3ccccc3)cc2)c2c(N)ncnc21 (stereo not drawn) [II-157, 7-isopropyl-5-(4-phenoxyphenyl)-6-(pyrrolidin-3-ylethynyl)-7H-pyrrolo[2,3-d]pyrimidin-4-amine] | ≤ 0.01
4 | CCC(=O)N1CC(N2CCC(C#Cc3c(-c4ccc(Oc5ccccc5)cc4)c4c(N)ncnc4n3C(C)C)CC2)C1 [II-158, 1-(3-(4-((4-amino-7-isopropyl-5-(4-phenoxyphenyl)-7H-pyrrolo[2,3-d]pyrimidin-6-yl)ethynyl)piperidin-1-yl)azetidin-1-yl)propan-1-one] | 0.01 to 1
5 | Cn1c(C#CC2CCNCC2)c(-c2ccc(Oc3ccccc3)cc2)c2c(N)ncnc21 [II-159, 7-methyl-5-(4-phenoxyphenyl)-6-(piperidin-4-ylethynyl)-7H-pyrrolo[2,3-d]pyrimidin-4-amine] | 0.01 to 1
6 | C=CC(=O)N[C@H]1CC[C@H](C#Cc2c(-c3ccc(Oc4cccc(C)n4)c(OC)c3)c3c(N)ncnc3n2C)CC1 [III-4] | 0.01 to 1
7 | C#Cc1c(-c2ccc(Oc3ccccc3)cc2)c2c(N)ncnc2n1C(C)C [III-6] | 0.01 to 1
8 | CC(C)n1c(C#Cc2cnn(C)c2)c(-c2ccc(Oc3ccccc3)cc2)c2c(N)ncnc21 [III-7] | 0.01 to 1
9 | CC(C)n1c(C#CC2CCOCC2)c(-c2ccc(Oc3ccccc3)cc2)c2c(N)ncnc21 [III-8] | 0.01 to 1
10 | CN(C)C/C=C/C(=O)Nc1ncnc2c1c(-c1ccc(Oc3ccccc3)cc1)c(C#CC1CNC1)n2C1CCOC1 (stereo not drawn) [III-9] | 0.01 to 1
11 | CN(C)C/C=C/C(=O)N1CCC(C#Cc2c(-c3ccc(Oc4ccccc4)cc3)c3c(N)ncnc3n2C2CCOC2)CC1 (stereo not drawn) [III-10] | 0.01 to 1
12 | C=CC(=O)N1CCC(C#Cc2c(-c3ccc(Oc4ccccc4)cc3)c3c(N)ncnc3n2C)C1 (stereo not drawn) [III-11] | 0.01 to 1
13 | CC(C)n1c(C#CC2CCN(C(=O)/C=C/CN(C)C)C2)c(-c2ccc(Oc3ccccc3)cc2)c2c(N)ncnc21 (stereo not drawn) [III-12] | ≤ 0.01
14 | C=CC(=O)N1CCC(O)(C#Cc2c(-c3ccc(Oc4ccccc4)cc3)c3c(N)ncnc3n2C)C1 (stereo not drawn) [III-13] | ≤ 0.01
15 | CN(C)C/C=C/C(=O)N1CCC(C#Cc2c(-c3ccc(Oc4ccccc4)cc3)c3c(N)ncnc3n2C)CC1 [III-14] | 0.01 to 1
16 | C=CC(=O)N1CCC(C#Cc2c(-c3ccc(Oc4ccccc4)cc3)c3c(N)ncnc3n2CCCN(C)C)C1 (stereo not drawn) [III-15] | 0.01 to 1
17 | CN(C)C/C=C/C(=O)N1CCC(O)(C#Cc2c(-c3ccc(Oc4ccccc4)cc3)c3c(N)ncnc3n2C)CC1 [III-16] | 0.01 to 1
18 | CN(C)C/C=C/C(=O)N1CCC(C#Cc2c(-c3ccc(Oc4ccccc4)cc3)c3c(N)ncnc3n2C2CCOC2)C1 (stereo not drawn) [III-18] | 0.01 to 1
19 | C=CC(=O)N1CCC(C#Cc2c(-c3ccc(Oc4ccccc4)cc3)c3c(N)ncnc3n2CCCCN(C)C)C1 (stereo not drawn) [III-20] | 0.01 to 1
20 | C=CC(=O)N1CCC(C#Cc2c(-c3ccc(Oc4ccccc4)cc3)c3c(N)ncnc3n2C2CCOC2)C1 (stereo not drawn) [III-21] | 0.01 to 1

Row | Compound | IC50 [µM]
21 | CN(C)C/C=C/C(=O)N1CCC(C#Cc2c(-c3ccc(Oc4ccccc4)cc3)c3c(N)ncnc3n2C)C1 (stereo not drawn) [III-22] | 0.01 to 1
22 | C=CC(=O)N1CCC(N2CC(O)(C#Cc3c(-c4ccc(Oc5ccccc5)cc4)c4c(N)ncnc4n3C)C2)CC1 [III-23] | 0.01 to 1
23 | CC(C)n1c(C#CC2(O)CCN(C(=O)/C=C/CN(C)C)CC2)c(-c2ccc(Oc3ccccc3)cc2)c2c(N)ncnc21 [III-24] | ≤ 0.01
24 | C=CC(=O)N1CCC(N2CC(C#Cc3c(-c4ccc(Oc5ccccc5)cc4)c4c(N)ncnc4n3C)C2)CC1 [III-25] | 0.01 to 1
25 | CN(C)C/C=C/C(=O)N1CC2(C1)CC(O)(C#Cc1c(-c3ccc(Oc4ccccc4)cc3)c3c(N)ncnc3n1C)C2 [III-26] | 0.01 to 1
26 | CC(CO)n1c(C#CC2(O)CCN(C(=O)/C=C/CN(C)C)CC2)c(-c2ccc(Oc3ccccc3)cc2)c2c(N)ncnc21 (stereo not drawn) [III-27] | 0.01 to 1
27 | CC(CO)n1c(C#CC2CCN(C(=O)/C=C/CN(C)C)CC2)c(-c2ccc(Oc3ccccc3)cc2)c2c(N)ncnc21 (stereo not drawn) [III-31] | 0.01 to 1
28 | CC(CO)n1c(C#CC2CCN(C(=O)/C=C/CN(C)C)C2)c(-c2ccc(Oc3ccccc3)cc2)c2c(N)ncnc21 (stereo not drawn) [III-32] | 0.01 to 1
29 | C=CC(=O)N1CCC(C#Cc2c(-c3ccc(Oc4ccccc4)cc3)c3c(N)ncnc3n2C(C)CO)C1 (stereo not drawn) [III-33] | 0.01 to 1
30 | C=C(C)C(=O)N1CCC(O)(C#Cc2c(-c3ccc(Oc4ccccc4)cc3)c3c(N)ncnc3n2C)CC1 [III-35] | 0.01 to 1
31 | Nc1ncnc2c1c(-c1ccc(Oc3ccccc3)cc1)c(C#CC1CCN(C(=O)/C=C/CN3CCOCC3)CC1)n2[C@H]1CCOC1 [III-36] | 0.01 to 1
32 | C=C(C)C(=O)N1CCC(C#Cc2c(-c3ccc(Oc4ccccc4)cc3)c3c(N)ncnc3n2[C@H]2CCOC2)CC1 [III-37] | 0.01 to 1
33 | C=C(C)C(=O)N1CCC(N2CC(C#Cc3c(-c4ccc(Oc5ccccc5)cc4)c4c(N)ncnc4n3C)C2)CC1 [III-38] | 0.01 to 1
34 | Cn1c(C#CC2(O)CCN(C(=O)/C=C/CN3CCOCC3)CC2)c(-c2ccc(Oc3ccccc3)cc2)c2c(N)ncnc21 [III-39] | 0.01 to 1
35 | C=C(C)C(=O)N1CCC(C#Cc2c(-c3ccc(Oc4ccccc4)cc3)c3c(N)ncnc3n2C)CC1 [III-40] | 0.01 to 1
36 | Cn1c(C#CC2CCN(C(=O)/C=C/CN3CCOCC3)CC2)c(-c2ccc(Oc3ccccc3)cc2)c2c(N)ncnc21 [III-41] | 0.01 to 1
37 | C=CC(=O)N(C)CC(=O)N1CCC(C#Cc2c(-c3ccc(Oc4ccccc4)cc3)c3c(N)ncnc3n2C)CC1 [III-43] | 0.01 to 1
38 | C=CC(=O)N[C@@H](C)C(=O)N1CCC(C#Cc2c(-c3ccc(Oc4ccccc4)cc3)c3c(N)ncnc3n2C)CC1 [III-45] | ≤ 0.01
39 | C=CC(=O)N1CCC(N2CC(C#Cc3c(-c4ccc(Oc5ccccc5)cc4)c4c(N)ncnc4n3C)C2)C[C@H]1C (stereo partly drawn) [III-46] | 0.01 to 1
40 | C=CC(=O)N1CCC(N2CC(C#Cc3c(-c4ccc(Oc5ccccc5)cc4)c4c(N)ncnc4n3C)C2)C[C@@H]1C (stereo partly drawn) [III-47] | 0.01 to 1

Row | Compound | IC50 [µM]
41 | C=CC(=O)N1CCC(O)(C#Cc2c(-c3ccc(Oc4ccccc4)cc3)c3c(N)ncnc3n2C)C[C@H]1C (stereo partly drawn) [III-48] | 0.01 to 1
42 | C=CC(=O)N1CCC(N2CC(C#Cc3c(-c4ccc(Oc5ccccc5)cc4)c4c(N)ncnc4n3C)C2)C(C)C1 (stereo not drawn) [III-49] | 0.01 to 1
43 | Cn1c(C#CC2(O)CCN(C(=O)/C=C/CN3CCC3)CC2)c(-c2ccc(Oc3ccccc3)cc2)c2c(N)ncnc21 [III-50] | 0.01 to 1
44 | C=CC(=O)NC1CCN(C2CC(C#Cc3c(-c4ccc(Oc5ccccc5)cc4)c4c(N)ncnc4n3C)C2)CC1 (stereo not drawn) [III-51] | 0.01 to 1
45 | C=CC(=O)N1CC2C(C#Cc3c(-c4ccc(Oc5ccccc5)cc4)c4c(N)ncnc4n3C)C2C1 (stereo not drawn) [III-52] | 0.01 to 1
46 | C=CC(=O)N1CCC(N2CC(C#Cc3c(-c4ccc(Oc5ccccc5)cc4)c4c(N)ncnc4n3C3CCOC3)C2)CC1 (stereo not drawn) [III-53] | ≤ 0.01
47 | C=CC(=O)N1CCC(O)(C#Cc2c(-c3ccc(Oc4ccccc4)c(C#N)c3)c3c(N)ncnc3n2C)CC1 [III-54] | 1 to 10
48 | C=CC(=O)N1CCC(N2CC(C#Cc3c(-c4ccc(Oc5ccccc5)cc4)c4c(N)ncnc4n3[C@@H]3CCOC3)C2)CC1 [III-55] | ≤ 0.01
49 | C=CC(=O)N1CCCC(N2CC(C#Cc3c(-c4ccc(Oc5ccccc5)cc4)c4c(N)ncnc4n3C)C2)CC1 (stereo not drawn) [III-56] | 0.01 to 1
50 | C=CC(=O)N[C@H]1CC[C@@H](C#Cc2c(-c3ccc(Oc4ccccc4)cc3)c3c(N)ncnc3n2C)CC1 [III-57] | 0.01 to 1
51 | C=CC(=O)N[C@H]1CC[C@H](C#Cc2c(-c3ccc(Oc4ccccc4)cc3)c3c(N)ncnc3n2C)CC1 [III-58] | 0.01 to 1
52 | C=CC(=O)N1CCC(O)(C#Cc2c(-c3ccc(Oc4ccccc4)c(Cl)c3)c3c(N)ncnc3n2C)CC1 [III-59] | 0.01 to 1
53 | C=CC(=O)N1CCC(N2CC(C#Cc3c(-c4ccc(Oc5ccccc5)cc4)c4c(N)ncnc4n3C(C)CO)C2)CC1 (stereo not drawn) [III-60] | 0.01 to 1
54 | Cn1c(C#CC2CN(C(=O)/C=C/CN3CCOCC3)C2)c(-c2ccc(Oc3ccccc3)cc2)c2c(N)ncnc21 [III-61] | 0.01 to 1
55 | C=CC(=O)N1CCC(O)(C#Cc2c(-c3ccc(Oc4ccccc4)c(F)c3)c3c(N)ncnc3n2C)CC1 [III-62] | 0.01 to 1
56 | C=CC(=O)N1CCC(N2CC(C#Cc3c(-c4ccc(Oc5ccccc5)cc4)c4c(N)ncnc4n3[C@H]3CCOC3)C2)CC1 [III-63] | ≤ 0.01
57 | C=CC(=O)N1CCC(N2CC(C#Cc3c(-c4ccc(Oc5ccccc5)cc4)c4c(N)ncnc4n3C)C2)C[C@H]1CO (stereo partly drawn) [III-64] | 0.01 to 1
58 | C=CC(=O)N1CC[C@H](N2CC(C#Cc3c(-c4ccc(Oc5ccccc5)cc4)c4c(N)ncnc4n3C)C2)[C@H](C)C1 [III-65] | 0.01 to 1
59 | C=CC(=O)N1CC[C@@H](N2CC(C#Cc3c(-c4ccc(Oc5ccccc5)cc4)c4c(N)ncnc4n3C)C2)[C@H](C)C1 [III-66] | 0.01 to 1
60 | C=CC(=O)N1CCC(N2CC(C#Cc3c(-c4ccc(Oc5ccccc5)cc4)c4c(N)ncnc4n3C)C2)C[C@@H]1CO (stereo partly drawn) [III-67] | 0.01 to 1
